The values that follow come from patent US7115662B2, “Certain 5-alkyl-2-arylaminophenylacetic acids and derivatives” (Novartis AG, priority 1997, dated 2006).

A word on the IC50: it is the midpoint of a concentration-inhibition curve. A high value points to a need for much substance. Broadly, the melting point is the temperature of the solid-liquid transition.

The subject of data set [1] is pain threshold in yeast-inflamed paw. The experiment in a line: Randall-Selitto paw pressure assay. The format is in vivo, rat. The settings on record: male Wistar rats; 10 mg/kg orally; 1 h after dosing. As to the method: The analgesic activity of the compounds of the invention is determined using the well-known Randall-Selitto assay.
The Randall-Selitto paw pressure assay measures antinociception (analgesic activity) in inflamed tissue by comparing the pressure threshold in the inflamed paw of the rat after oral administration of test drug with that in the inflamed paw of rats administered corn starch vehicle orally.
Groups of 10 male Wistar rats weighing 40–50 gms are fasted overnight prior to testing. Hyperalgesia is induced by the injection of 0.1 ml of a 20% suspension of Brewer's yeast with a 26 gauge needle into the subplantar region of the right hindpaw. The left paw is not injected and is used as the control paw for determination of hyperalgesia. Vehicle (Fortified corn starch suspension 3%) at 10 ml/kg, reference compound (diclofenac is run in every experiment at the same dose as test compounds) and test compounds at different doses suspended in vehicle at 10 ml/kg are administered orally 2 hours after the yeast injection. The threshold for paw withdrawal is quantified with a Basile Analgesy-meter 1 hour after oral administration of test compounds. The nociceptive threshold is defined as the force in grams at which the rat withdraws its foot or vocalizes. Either vocalization or foot withdrawal is recorded as a response.
The data are analyzed by comparing the mean pain threshold of the corn starch vehicle-treated group for the inflamed and non-inflamed paws to that of individual drug-treated rats. Individual rats in the drug-treated groups and positive control (diclofenac) group are called reactors if the individual pain threshold in each paw exceeds the control group mean threshold by two standard deviations of that mean. The mean pain thresholds of the inflamed paw in the control group are compared to the individual pain thresholds of the inflamed paw in the test drug group. The non-inflamed control mean pressure threshold is compared to the non-inflamed individual pressure thresholds in the test groups. Results are expressed as number of reactors in each test group (n=10) for inflamed and non-inflamed paws. Percentages are calculated by dividing number of reactors by total number of rats used for a compound.

The next data set has as its target T1, cyclooxygenase-2 (COX-2) (Homo sapiens, UniProt P35354).
T1 construct: endogenous in cells; host or cells: primary human skin fibroblasts induced with IL-1
T1 sequence (P35354 18-604): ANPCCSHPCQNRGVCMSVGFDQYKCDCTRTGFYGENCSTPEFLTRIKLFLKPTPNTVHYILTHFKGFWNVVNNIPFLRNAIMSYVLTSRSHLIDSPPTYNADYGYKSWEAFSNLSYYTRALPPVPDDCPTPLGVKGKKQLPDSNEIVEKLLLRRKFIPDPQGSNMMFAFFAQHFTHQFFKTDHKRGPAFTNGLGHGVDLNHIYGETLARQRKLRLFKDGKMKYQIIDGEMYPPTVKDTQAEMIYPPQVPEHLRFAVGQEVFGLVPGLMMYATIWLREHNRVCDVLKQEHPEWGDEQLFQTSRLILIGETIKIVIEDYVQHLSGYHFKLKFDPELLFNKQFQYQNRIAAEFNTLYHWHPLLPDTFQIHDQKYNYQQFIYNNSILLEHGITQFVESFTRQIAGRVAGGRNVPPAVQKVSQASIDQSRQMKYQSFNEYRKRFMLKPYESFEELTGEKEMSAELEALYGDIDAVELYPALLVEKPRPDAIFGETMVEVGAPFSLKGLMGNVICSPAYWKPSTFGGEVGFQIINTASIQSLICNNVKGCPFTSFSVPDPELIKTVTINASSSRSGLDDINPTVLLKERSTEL
The experiment in a line: cellular COX-2 inhibition assay (IL-1 induced human fibroblasts, PGE2 radioimmunoassay). It counts as cell-based. The settings on record: primary human fibroblasts induced with IL-1, 40 μM arachidonic acid. The method, then: (§1) Cyclooxygenase inhibition is determined in vitro using cellular assays for inhibition of both cyclooxygenase-1 and cyclooxygenase-2.
(§2) The cellular assays for testing cyclooxygenase inhibitors are based on the fact that the cyclooxygenase enzyme (prostaglandin H synthase) catalyzes the rate limiting step in prostaglandin synthesis from arachidonic acid. Two enzymes mediate the reaction: COX-1 is a constitutive form of the enzyme whereas COX-2 is induced in response to various growth factors and cytokines. Cell lines have been established which express one form of the enzyme: a human skin fibroblast line which can be induced with IL-1 to synthesize COX-2, and the kidney epithelial cell line 293 which has been stably transfected to constitutively express COX-1. Both isoforms metabolize arachidonic acid into the stable metabolite prostaglandin E2. Arachidonic acid can be added exogenously to increase output to easily measurable levels. The levels of prostaglandin E2 in the extracellular medium are assayed by radioimmunoassay as a measure of enzyme activity. The relative activities of each isoform are compared to assess compound selectivity.
(§3) In vitro cyclooxygenase-1 (COX-1) and cyclooxygenase-2 (COX-2) inhibition is determined in the cell-based assays in order to assess the in vitro activity and selectivity for COX-2 inhibition, using a prostaglandin E2 radioimmunoassay. The cells utilized are primary human fibroblasts induced with interleukin-1 to produce COX-2, and the human kidney epithelial cell line 293 stably transfected to produce COX-1 constitutively. Cells are plated out into well plates in which the assay is performed. Fibroblasts are stimulated to synthesize COX-2 by treatment overnight with IL-1; the 293 cells require no induction. Both cell lines are pre-treated with compound dilutions for 15 minutes at 37° C., then 40 μM arachidonic acid is added as exogenous substrate for the production of PGE2, which is measured in supernatant by radioimmunoassay. […]

A further data set concerns the target T2, cyclooxygenase-1 (COX-1) (Homo sapiens, UniProt P23219).
T2 construct: expressed in transfected cells; host or cells: human kidney epithelial cell line 293, stably transfected
The experiment in a line: cellular COX-1 inhibition assay (293 cells stably transfected with COX-1, PGE2 radioimmunoassay). The settings on record: 293 cells expressing COX-1; 30 μM compound. It counts as cell-based. As to the method: as §1, §2, §3

The next data set concerns gross gastric ulceration. The experiment in a line: gastric tolerability assay. The format is in vivo. The settings on record: rat; 100 mg/kg p.o.; four hours after administration. As to the method: The gastric tolerability assay is used to assess gross ulceration in the rat, measured four hours after oral administration of the test compound. The test is carried out as follows: Rats are fasted overnight, administered compound in fortified cornstarch vehicle by gavage, and sacrificed by carbon dioxide inhalation four hours later. The stomachs are removed and gross gastric lesions counted and measured to give the total lesion length per rat. Each experiment contains the following groups (5–6 rats per group): vehicle control, test compounds, and diclofenac as a reference compound. Data are calculated as the mean number of ulcers in a group, the mean length of ulcers (mm) in the group and as the ulcer index (UI). UI=mean length of ulcers in a group×ulcer incidence where ulcer incidence is the fraction of animals in the group with lesions (100% incidence is 1).

The subject of another data set is intestinal permeability. The experiment in a line: intestinal tolerability (51Cr-EDTA intestinal permeability). The settings on record: rat; 30 mg/kg p.o.; 51Cr-EDTA urinary excretion over 24 h. It counts as in vivo. As to the method:
Intestinal tolerability can be determined by measuring the effect on intestinal permeability. Lack of increase in permeability is indicative of intestinal tolerability. The method used is a modification of a procedure by Davies, et al., Pharm. Res. 1994; 11:1652–1656 and is based on the fact that excretion of orally administered ^51Cr-EDTA, a marker of small intestinal permeability, is increased by NSAIDs. Groups of rats (≧12/group) are administered a single, oral dose of test compound or vehicle by gastric intubation. Immediately following compound dose, each rat is administered ^51Cr-EDTA (5 μCi/rat) by gastric intubation. The rats are placed in individual metabolic cages and given food and water ad libitum. Urine is collected over a 24 hour period. Twenty-four hours after administration of ^51Cr-EDTA the rats are sacrificed. To quantify compound effect on intestinal permeability, the excreted ^51Cr-EDTA measured in the urine of compound treated rats is compared to the excreted ^51Cr-EDTA measured in the urine of vehicle treated rats. Relative permeability is determined by calculating the activity present in each urine sample as a percent of the administered dose after correcting for background radiation.

T2 sequence (P23219 24-599, species assumed): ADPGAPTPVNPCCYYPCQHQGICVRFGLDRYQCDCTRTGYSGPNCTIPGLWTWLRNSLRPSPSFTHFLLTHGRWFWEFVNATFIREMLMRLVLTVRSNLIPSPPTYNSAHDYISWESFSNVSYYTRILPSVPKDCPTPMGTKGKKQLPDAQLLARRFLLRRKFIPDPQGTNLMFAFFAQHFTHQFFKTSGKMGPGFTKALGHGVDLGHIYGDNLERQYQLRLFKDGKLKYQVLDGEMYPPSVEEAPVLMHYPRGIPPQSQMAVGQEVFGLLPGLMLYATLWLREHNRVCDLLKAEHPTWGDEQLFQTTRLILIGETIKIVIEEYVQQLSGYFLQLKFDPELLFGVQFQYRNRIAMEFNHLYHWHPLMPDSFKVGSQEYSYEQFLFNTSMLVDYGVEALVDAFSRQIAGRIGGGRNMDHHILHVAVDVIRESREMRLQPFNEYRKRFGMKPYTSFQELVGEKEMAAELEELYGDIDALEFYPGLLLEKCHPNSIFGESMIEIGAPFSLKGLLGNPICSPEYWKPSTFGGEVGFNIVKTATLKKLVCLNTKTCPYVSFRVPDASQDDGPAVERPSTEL

Turning to `Cc1ccc(Nc2c(F)cccc2Cl)c(CC(=O)O)c1` [1(d), 5-methyl-2-(2′-chloro-6′-fluoroanilino)phenylacetic acid], in data set [1], the “pain threshold in the inflamed paw” value is “increase the pain threshold” and the “pain threshold in the non-inflamed paw” value is “no threshold elevation”. Moreover, on cyclooxygenase-2 (COX-2), the IC50 was ~130 nM. Moreover, the “COX-1 inhibition at 30 μM” value on cyclooxygenase-1 (COX-1) is given as “no significant COX-1 inhibition”. Also, in the data set on gross gastric ulceration, the gastric ulcerogenic effect entry is given as “essentially free of any gastric ulcerogenic effect”. The “effect on intestinal permeability” value in the data set with intestinal permeability is “no effect or only a minimal effect”.

In the case of `CCc1ccc(Nc2c(F)c(F)cc(F)c2F)c(CC(=O)O)c1` [3(a), 5-ethyl-2-(2′, 3′,5′,6′-tetrafluoroanilino)phenylacetic acid], in data set [1], the “pain threshold in the inflamed paw” value was “increase the pain threshold” and the “pain threshold in the non-inflamed paw” value is given as “no threshold elevation”. Besides, the half-inhibitory concentration (IC50) at cyclooxygenase-2 (COX-2) is ~7 nM. Further, at cyclooxygenase-1 (COX-1), the “COX-1 inhibition at 30 μM” value was “no significant COX-1 inhibition”. Besides, the gastric ulcerogenic effect result with gross gastric ulceration is given as “essentially free of any gastric ulcerogenic effect”. In the data set on intestinal permeability, the “effect on intestinal permeability” value is given as “no effect or only a minimal effect”.

In turn, `Cc1ccc(Nc2c(F)cc(F)cc2Cl)c(CC(=O)O)c1` [Example 1(g), 5-methyl-2-(2′,4′-difluoro-6′-chloroanilino)phenylacetic acid] came in with a melting point of 157 to 159 °C. In data set [1], the “pain threshold in the inflamed paw” value is recorded as “increase the pain threshold” and the “pain threshold in the non-inflamed paw” value is recorded as “no threshold elevation”. Besides, on cyclooxygenase-2 (COX-2), the 50% inhibitory concentration (IC50) is ~250 nM. Besides, the “COX-1 inhibition at 30 μM” value at cyclooxygenase-1 (COX-1) was “no significant COX-1 inhibition”. Besides, the gastric ulcerogenic effect entry in the data set on gross gastric ulceration was “essentially free of any gastric ulcerogenic effect”. Further, in the data set on intestinal permeability, the “effect on intestinal permeability” value is given as “no effect or only a minimal effect”.
